# In patent US7291621B2, “Substituted biaryl amides C5a receptor modulators” (Neurogen Corporation, priority 2002, dated 2007):
# Read-outs that look alike come from different tables or passages of the source.
# Biological target: T1, C5a receptor (Homo sapiens, UniProt P21730)
# T1 construct: endogenous in cells; host or cells: U937 cells differentiated with 1 mM dibutyryl cAMP
# T1 sequence (P21730 1-350): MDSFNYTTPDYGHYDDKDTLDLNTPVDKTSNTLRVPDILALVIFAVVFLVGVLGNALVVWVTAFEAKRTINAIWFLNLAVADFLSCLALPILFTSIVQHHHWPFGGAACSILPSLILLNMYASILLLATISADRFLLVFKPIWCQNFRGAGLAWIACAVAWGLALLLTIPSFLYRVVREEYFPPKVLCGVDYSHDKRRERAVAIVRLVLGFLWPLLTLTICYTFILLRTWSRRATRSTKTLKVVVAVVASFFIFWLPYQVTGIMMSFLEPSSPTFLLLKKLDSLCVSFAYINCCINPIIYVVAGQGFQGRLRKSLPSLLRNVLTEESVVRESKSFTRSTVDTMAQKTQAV
# Experiment: standard assay of C5a receptor mediated calcium mobilization
# Format: cell-based
# Conditions: asterisk = tested in C5a receptor mediated calcium mobilization assay, read-out: Ca2+ Mob.
# How it was run: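 U937 cells differentiated 48 hrs with 1 mM dibutyryl cAMP, loaded with Fluo-3 (10 μg/mL) and read by FLIPR fluorescence (ex 480/em 530). For antagonism, cells preincubated 1 h with 1 μM compound before 0.3 nM human recombinant C5a; activity scored as fold decrease in response versus C5a alone.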
Ki (Table I) [µM],Ki (Table III) [µM],SMILES
< 1,–,"COc1ccc(-c2ccccc2)c(C(=O)N(Cc2ccc(F)c(F)c2)C2Cc3ccccc3C2)c1 [compound 111, N-(3,4-difluorobenzyl)-N-(indan-2-yl)-4-methoxy-1,1′-biphenyl-2-carboxamide]"
< 1,–,"O=C(c1cc(Cl)ccc1-c1ccccc1)N(Cc1cccc(F)c1)C1Cc2ccccc2C1 [compound 135, 4-chloro-N-(indan-2-yl)-N-(3-fluorobenzyl)-1,1′-biphenyl-2-carboxamide]"
–,< 1,"COc1ccc2ccccc2c1C(=O)N(CCc1ccccc1)C1Cc2ccccc2C1 [compound 220, 2-Methoxy-naphthalene-1-carboxylic acid indan-2-yl-phenethyl-amide]"
< 1,–,"Cc1ccccc1CN(C(=O)c1cc(Cl)ccc1-c1ccccc1)C1Cc2ccccc2C1 [compound 131, 4-chloro-N-(indan-2-yl)-N-(2-methylbenzyl)-1,1′-biphenyl-2-carboxamide]"
< 1,–,"Cc1cccc(-c2ccccc2)c1C(=O)N(Cc1ccccc1F)C1Cc2ccccc2C1 [compound 123, N-(indan-2-yl)-N-(2-fluorobenzyl)-3-methyl-1,1′-biphenyl-2-carboxamide]"
< 1,–,"Cc1cc(CN(Cc2ccccc2)C(=O)c2ccccc2-c2ccccc2)cc(C)c1O [compound 150, N-benzyl-N-(4-hydroxy-3,5-dimethylbenzyl)-1,1′-biphenyl-2-carboxamide]"
< 1,–,"O=C(c1cc(Cl)ccc1-c1ccccc1)N(CCc1ccccc1)C1Cc2ccccc2C1 [compound 141, 4-chloro-N-(indan-2-yl)-N-(2-phenylethyl)-1,1′-biphenyl-2-carboxamide]"
< 1,–,"Cc1ccc(-c2ccccc2C(=O)N(Cc2ccccc2)Cc2cc(C)c(O)c(C)c2)s1 [compound 147, N-benzyl-N-(4-hydroxy-3,5-dimethylbenzyl)-2-(5-methylthien-2-yl)benzamide]"
< 1,–,"Cc1cccc(-c2ccccc2)c1C(=O)N(Cc1ccccc1)C1Cc2ccccc2C1 [compound 113, N-benzyl-N-(indan-2-yl)-3-methyl-1,1′-biphenyl-2-carboxamide]"
< 1,–,"O=C(c1cc(Cl)ccc1-c1ccccc1)N(Cc1ccc(F)c(F)c1)C1Cc2ccccc2C1 [compound 137, 4-chloro-N-(3,4-difluorobenzyl)-N-(indan-2-yl)-1,1′-biphenyl-2-carboxamide]"

# Continued, compound first:
SMILES,Ki (Table I) [µM],Ki (Table III) [µM]
"O=C(c1ccccc1-c1ccccc1Cl)N(Cc1ccccc1)Cc1ccccc1 [compound 48, N,N-dibenzyl-2′-chloro-1,1′-biphenyl-2-carboxamide]",< 1,–
"O=C(c1ccccc1-c1ccc(Cl)cc1Cl)N(Cc1ccccc1)Cc1ccccc1 [compound 52, N,N-dibenzyl-2′,4′-dichloro-1,1′-biphenyl-2-carboxamide]",< 1,–
"COc1ccc(-c2ccccc2)c(C(=O)N(Cc2ccc(C)cc2)C2Cc3ccccc3C2)c1 [compound 107, N-(indan-2-yl)-4-methoxy-N-(4-methylbenzyl)-1,1′-biphenyl-2-carboxamide]",< 1,–
"O=C(c1ccccc1-c1ccc(Cl)cc1)N(Cc1ccccc1)Cc1ccccc1 [compound 50, N,N-dibenzyl-4′-chloro-1,1′-biphenyl-2-carboxamide]",< 1,–
"O=C(c1cc(O)ccc1-c1ccccc1)N(Cc1ccccc1)C1Cc2ccccc2C1 [compound 68, N-benzyl-N-(indan-2-yl)-4-hydroxy-1,1′-biphenyl-2-carboxamide]",< 1,–
"Cc1cccc(-c2ccccc2C(=O)N(Cc2ccccc2)Cc2ccccc2)c1 [compound 54, N,N-dibenzyl-3′-methyl-1,1′-biphenyl-2-carboxamide]",< 1,–
"Cc1ccc2c(c1)CC(N(Cc1ccccc1)C(=O)c1ccccc1-c1ccccc1)C2 (centres unmarked) [compound 72, N-benzyl-N-(5-methyl-indan-2-yl)-1,1′-biphenyl-2-carboxamide]",< 1,–
"COc1ccc(-c2ccccc2C(=O)N(Cc2ccccc2)Cc2ccccc2)cc1 [compound 44, N,N-dibenzyl-4′-methoxy-1,1′-biphenyl-2-carboxamide]",< 1,–
"O=C(c1ccccc1-c1ccsc1)N(Cc1ccccc1)Cc1ccccc1 [compound 41, N,N-dibenzyl-2-thien-3-ylbenzamide]",< 1,–
"Cc1ccccc1CN(C(=O)c1ccccc1-c1ccccc1)C1Cc2ccccc2C1 [compound 73, N-(indan-2-yl)-N-(2-methylbenzyl)-1,1′-biphenyl-2-carboxamide]",< 1,–
